Measurements taken from patent publication US8865656B2, “Beta-hairpin peptidomimetics having CXCR4 antagonizing activity” (Polyphor AG, priority 2009, dated 2014).
Where two headings read alike, the source gives them in different places. Positions of bridges follow the written chain, without caps; N, C: chain ends. Non-standard residues stand in square brackets, D forms with d. Residues, ends and D or L forms follow the SMILES beside them. ξ: configuration not given here. Dab = NCC[C@H](N)C(=O)O; ξT = CC(O)C(N)C(=O)O

Tests used:
[1] = tested on: human red blood cells (hRBC); conditions: red cells of human, 1 h
Protocol: The peptides were tested for their hemolytic activity against human red blood cells (hRBC). Fresh hRBC were washed three times with phosphate buffered saline (PBS) and centrifuged for 10 min at 2000×g. Compounds (100 μM) were incubated with 20% hRBC (v/v) for 1 h at 37° C. The final erythrocyte concentration was approximately 0.9×10^9 cells/mL. A value of 0% and 100% cell lyses, respectively, was determined by incubation of hRBC in the presence of PBS alone and 0.1% Triton X-100 in H2O, respectively. The samples were centrifuged, the supernatants were 20-fold diluted in PBS buffer and the optical densities (OD) were measured at 540 nm.
Percent hemolysis was calculated as follows: (OD540peptide/OD540H2O)×100%.

in vitro [2] = type: cell-based
Protocol: (§1) The cytotoxicity of the depsipeptides to HELA cells (Acc57) and COS-7 cells (CRL-1651) was determined using the MTT reduction assay (T. Mossman, J. Immunol. Meth. 1983, 65, 55-63; M. V. Berridge, A. S. Tan, Arch. Biochem. Biophys. 1993, 303, 474-482). Briefly, the method was as follows: 7000 HELA cells/well and 4500 COS-7 cells/well were seeded and grown in 96-well microtiter plates for 24 h at 37° C. at 5% CO2. Thereafter, time zero (Tz) was determined by MTT reduction (see below). The supernatant of the remaining wells was discarded, and fresh medium and compounds in serial dilutions (12.5, 25 and 50 μM, triplicates) were pipetted into the wells. After incubation of the cells for 48 h at 37° C. at 5% CO2 the supernatant was discarded again and 100 μL MTT reagent (0.5 mg/mL in RPMI1640 and DMEM, respectively)/well was added. Following incubation at 37° C. for 2 h the media were aspirated and the cells were spiked (100 μL isopropanol/well). The absorbance of the solubilized formazan was measured at 595 nm (OD595peptide). For each concentration averages were calculated from triplicates. The percentage of growth was calculated as follows: (OD595peptide-OD595Tz-OD595Empty well)/(OD595Tz-OD595Empty well)×100%. The GI50 (Growth Inhibition) concentrations were calculated for each depsipeptide by using a trend line function for the concentrations (50, 25, 12.5 and 0 μM), the corresponding percentages and the value 50, (=TREND (C50:C0, %50:%0, 50).

human CXCR4 = biological target: T1, human CXCR4 (Homo sapiens, UniProt P61073); assay: Ca2+-assay: CXCR4-antagonizing activity (SDF-1 induced calcium mobilization); type: cell-based; conditions: mouse pre-B cell line 300-19 stably transfected with human CXCR4, read-out: IC50% [nM] ± SD, CXCR4 receptor
T1 construct: expressed in transfected cells; host or cells: mouse pre-B cell line 300-19
T1 sequence (P61073 whole entry): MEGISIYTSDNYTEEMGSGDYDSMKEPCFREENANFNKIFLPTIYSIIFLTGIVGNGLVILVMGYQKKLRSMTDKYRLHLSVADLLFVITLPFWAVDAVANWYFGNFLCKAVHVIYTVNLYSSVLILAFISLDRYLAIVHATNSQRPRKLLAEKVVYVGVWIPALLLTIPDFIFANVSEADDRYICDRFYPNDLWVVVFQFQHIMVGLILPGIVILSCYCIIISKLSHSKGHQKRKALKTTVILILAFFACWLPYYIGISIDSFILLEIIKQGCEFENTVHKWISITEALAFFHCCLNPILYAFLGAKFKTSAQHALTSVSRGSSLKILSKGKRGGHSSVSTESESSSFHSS
Text: 2.3. Ca^2+-Assay: CXCR4-Antagonizing Activity of the Peptides
Increases in intracellular calcium were monitored using a Flexstation 384 (Molecular Devices, Sunnyvale, Calif.) to assay the depsipeptides for CXCR4 antagonism in a mouse pre-B cell line 300-19 stably transfected with human CXCR4 (E. Oberlin, A. Amara, F. Bachelerie, C. Bessia, J.-L. Virelizier, F. Arenzana-Seisdedos, O. Schwartz, J.-M. Heard, I. Clark-Lewis, D. F. Legler, M. Loetscher, M. Baggiolini, B. Moser, Nature 1996, 382, 833-835; M. Loetscher, T. Geiser, T. O'Reilly, R. Zwalen, M. Baggiolini, B. Moser, J. Biol. Chem. 1994, 269, 232-237; M. D'Apuuo, A. Rolink, M. Loetscher, J. A. Hoxie, I. Clark-Lewis, F. Melchors, M. Baggiolini, B. Moser, Eur. J. Immunol. 1997, 27, 1788-1793). The cells were batch loaded with the Calcium 4 Assay kit (Molecular Devices) in assay buffer (Hanks Balanced salt solution [HBSS], 20 mM HEPES, pH 7.4, 0.1% BSA) for 1 h at room temperature and labeled cells were dispensed into black 96 well assays plates (Costar No. 3603). Calcium mobilization induced by stromal-derived factor-1 (SDF-1) was measured in the Flexstation 384 (excitation: 485 nm; emission: 525 nm) for 90 seconds. Antagonist activity of peptides was determined by spiking the cells with compounds prior to SDF-1 addition. Dose response curves (compound concentration versus % maximum response for SDF-1) were determined for each antagonist and IC50 values were calculated by fitting the data to a four parameter logistic equation using SoftmaxPro 4.8 (Molecular Devices).

[3] = Plasma stability in human plasma; conditions: human plasma, 37° C., sampling up to 240 min
Protocol: (§2) The stability of the peptides in human and mouse plasma was determined by applying the following method: 315 μL/deep well of freshly thawed human plasma (Basler Blutspende-dienst) and mouse plasma (Harlan Sera-Lab, UK), respectively, were spiked with 35 μL/well of compound in PBS (100 μM, triplicate) and incubated at 37° C. […] Following shaking for 2 min the occurred suspensions were filtrated by vacuum and finally, 100 μL of each filtrate were transferred to a propylene microtiter plate, and analyzed by LC/MS as follows: Column: Waters, XBridge C18, mobile phases: (A) water+0.1% formic acid and (B) acetonitrile/water, 95/5 (v/v)+0.1% formic acid, gradient: 5%-100% (B) in 2 minutes, electrospray ionization, MRM detection (triple quadrupole). The peak areas were determined and triplicate values are averaged. The stability is expressed in percent of the initial value at t=0. (tx/to×100). By using the TREND function of EXCEL (Microsoft Office 2003) T1/2 were determined.

in vitro [4] = type: cell-based; remark: listed apart in the source
Protocol: as §1

[5] = Plasma stability in mouse plasma; conditions: mouse plasma, 37° C., sampling up to 240 min
Protocol: as §2

SMILES	Hemolysis at 100 μM [1]	GI50 (in vitro [2]; human)	IC50 (human CXCR4)	Plasmastability human pl. T1/2 [3]	GI50 (in vitro [4]; African green monkey)	Plasmastability mouse pl. T1/2 [5]	GI50 (in vitro [2])	GI50 (in vitro [4])
C[C@@H]1NC(=O)[C@H](Cc2c[nH]cn2)NC(=O)[C@H](Cc2ccc(O)cc2)NC(=O)[C@@H]2CCCN2C(=O)[C@@H](CC2CCCCC2)NC(=O)[C@H](CCCCN)NC(=O)[C@H](CCC(N)=O)NC(=O)[C@H](Cc2ccc(O)cc2)NC(=O)[C@@H]2CSSC[C@H](NC1=O)C(=O)N[C@@H](CO)C(=O)N[C@@H](C)C(=O)N1CCC[C@@H]1C(=O)N[C@@H](CCN)C(=O)N[C@@H](CCCNC(=N)N)C(=O)N[C@@H](Cc1ccc(O)cc1)C(=O)N2 [Ex. 1]	0%	> 50 µM	1.3 ± 0.4 nM	4 h	> 50 µM	4 h		
CC[C@@H](C)[C@@H]1C(=O)N2CCC[C@H]2C(=O)N[C@@H](Cc2ccc(O)cc2)C(=O)N[C@@H](Cc2c[nH]cn2)C(=O)N[C@@H](C)C(=O)N[C@H]2CSSC[C@H](NC(=O)[C@H](Cc3ccc(O)cc3)NC(=O)[C@H](CCCNC(=N)N)NC(=O)[C@H](CCN)NC(=O)[C@H]3CCCN3C(=O)[C@H](C)NC(=O)[C@H](CO)NC2=O)C(=O)N[C@@H](Cc2ccc(O)cc2)C(=O)N[C@@H](CCC(N)=O)C(=O)N[C@@H](CCCCN)C(=O)N1C [compound 2]	0.6%	> 50 µM	1.22 ± 1 nM	4 h	> 50 µM	4 h		
C[C@@H]1NC(=O)[C@H](Cc2c[nH]cn2)NC(=O)[C@H](Cc2ccc(O)cc2)NC(=O)[C@@H]2CCCN2C(=O)[C@@H](Cc2cn(Cc3ccccc3)cn2)NC(=O)[C@H](CCCCN)NC(=O)[C@H](CCC(N)=O)NC(=O)[C@H](Cc2ccc(O)cc2)NC(=O)[C@@H]2CSSC[C@H](NC1=O)C(=O)N[C@@H](CO)C(=O)N[C@@H](C)C(=O)N1CCC[C@@H]1C(=O)N[C@@H](CCN)C(=O)N[C@@H](CCCNC(=N)N)C(=O)N[C@@H](Cc1ccc(O)cc1)C(=O)N2 [compound 5]	1%	> 50 µM	0.92 ± 0.2 nM	4 h	> 50 µM	4 h		
C[C@@H]1NC(=O)[C@H](Cc2c[nH]cn2)NC(=O)[C@H](Cc2ccc(O)cc2)NC(=O)[C@@H]2CCCN2C(=O)[C@@H](Cc2ccncc2)NC(=O)[C@H](CCCCN)NC(=O)[C@H](CCC(N)=O)NC(=O)[C@H](Cc2ccc(O)cc2)NC(=O)[C@@H]2CSSC[C@H](NC1=O)C(=O)N[C@@H](CO)C(=O)N[C@@H](C)C(=O)N1CCC[C@@H]1C(=O)N[C@@H](CCN)C(=O)N[C@@H](CCCNC(=N)N)C(=O)N[C@@H](Cc1ccc(O)cc1)C(=O)N2 [compound 6]	2.4%	> 50 µM	0.17 ± 0.1 nM	4 h	> 50 µM	4 h		
C[C@@H]1NC(=O)[C@H](Cc2c[nH]cn2)NC(=O)[C@H](Cc2ccc(O)cc2)NC(=O)[C@@H]2CCCN2C(=O)[C@@H](Cc2ccc(O)cc2)N(C)C(=O)[C@H](CCCCN)NC(=O)[C@H](CCC(N)=O)NC(=O)[C@H](Cc2ccc(O)cc2)NC(=O)[C@@H]2CSSC[C@H](NC1=O)C(=O)N[C@@H](CO)C(=O)N[C@@H](C)C(=O)N1CCC[C@@H]1C(=O)N[C@@H](CCN)C(=O)N[C@@H](CCCNC(=N)N)C(=O)N[C@@H](Cc1ccc(O)cc1)C(=O)N2 [compound 7]	0.6%	> 50 µM	0.33 ± 0.1 nM	4 h	> 50 µM	4 h		
C[C@@H]1NC(=O)[C@H](Cc2c[nH]cn2)NC(=O)[C@H](Cc2ccc(O)cc2)NC(=O)[C@@H]2CCCN2C(=O)[C@@H](CCCCN)N(C)C(=O)[C@H](CCCCN)NC(=O)[C@H](CCC(N)=O)NC(=O)[C@H](Cc2ccc(O)cc2)NC(=O)[C@@H]2CSSC[C@H](NC1=O)C(=O)N[C@@H](CO)C(=O)N[C@@H](C)C(=O)N1CCC[C@@H]1C(=O)N[C@@H](CCN)C(=O)N[C@@H](CCCNC(=N)N)C(=O)N[C@@H](Cc1ccc(O)cc1)C(=O)N2 [compound 8]	0.3%	> 50 µM	0.31 ± 0.2 nM	4 h	> 50 µM	4 h		
C[C@@H]1NC(=O)[C@H](Cc2c[nH]cn2)NC(=O)[C@H](Cc2ccc(O)cc2)NC(=O)[C@@H]2CCCN2C(=O)CN(CCCCN)C(=O)[C@H](CCCCN)NC(=O)[C@H](CCC(N)=O)NC(=O)[C@H](Cc2ccc(O)cc2)NC(=O)[C@@H]2CSSC[C@H](NC1=O)C(=O)N[C@@H](CO)C(=O)N[C@@H](C)C(=O)N1CCC[C@@H]1C(=O)N[C@@H](CCN)C(=O)N[C@@H](CCCNC(=N)N)C(=O)N[C@@H](Cc1ccc(O)cc1)C(=O)N2 [compound 9]	2.1%	> 50 µM	0.09 ± 0.05 nM	4 h	> 50 µM	4 h		
CC[C@@H](C)[C@H]1NC(=O)[C@H](CCCCN)NC(=O)[C@H](CCC(N)=O)NC(=O)[C@H](Cc2ccc(O)cc2)NC(=O)[C@@H]2CSSC[C@H](NC(=O)[C@H](C)NC(=O)[C@H](Cc3c[nH]cn3)NC(=O)[C@H](Cc3ccc(O)cc3)NC(=O)[C@@H]3CCCN3C1=O)C(=O)N[C@@H](CO)C(=O)N[C@@H](C)C(=O)N[C@H](Cc1c[nH]c3ccccc13)C(=O)N[C@@H](CCN)C(=O)N[C@@H](CCCNC(=N)N)C(=O)N[C@@H](Cc1ccc(O)cc1)C(=O)N2 [compound 11]	1.7%	> 50 µM	0.17 ± 0.02 nM	4 h	> 50 µM	4 h		
CC(O)C1NC(=O)[C@@H]2CSSC[C@H](NC(=O)[C@H](Cc3ccc(O)cc3)NC(=O)[C@H](CCCNC(=N)N)NC(=O)[C@H](CCN)NC(=O)[C@H]3CCCN3C(=O)[C@H](C)NC1=O)C(=O)N[C@@H](Cc1ccc(O)cc1)C(=O)N[C@@H](CCC(N)=O)C(=O)N[C@@H](CCCCN)C(=O)N1CCC[C@@H]1C(=O)N1CCC[C@H]1C(=O)N[C@@H](Cc1ccc(O)cc1)C(=O)N[C@@H](Cc1c[nH]cn1)C(=O)N[C@@H](C)C(=O)N2 (some centres unmarked) [compound 17] (cyclo(YHAC[ξT]A[dP][Dab]RYCYQK[dP]P); disulfide 4-11)	1%			4 h		4 h	> 50 µM	> 50 µM
